IC50 data for 17 compounds are collected here from patent publication US20260034111A1, “NOVEL HETEROCYCLES AS sPLA2-X INHIBITORS” (Cayman Chemical Company Incorporated, priority 2022, published 2026).

What all share (format): biochemical
Test [1] deals with T1, recombinant human sPLA2-IIA enzyme (Homo sapiens, UniProt P14555).
T1 construct: made in house; host or cells: E. coli
T1 sequence (P14555 21-144): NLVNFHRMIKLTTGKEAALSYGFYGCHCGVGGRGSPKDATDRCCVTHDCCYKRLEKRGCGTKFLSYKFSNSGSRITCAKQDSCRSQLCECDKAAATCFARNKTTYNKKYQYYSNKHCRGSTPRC
Briefly: sPLA2-IIA enzyme inhibition assay (thio-PC substrate, DTNB detection, absorbance 410 nm). The settings on record: class symbols. The text has this:
(§1) Screening Compounds for Inhibition of sPLA2-X, sPLA2-V, and sPLA2-IIA Enzyme Activity
(§2) These sPLA2 enzymes hydrolyze the sn-2 acyl chains of glycerophospholipids, resulting in the release of a free fatty acid and a lysophospholipid. In the case of the thio-PC substrate, this enzymatic hydrolysis results in a free sulfhydryl group remaining on the lysophospholipid. This free sulfhydryl reacts with DTNB to produce the chromogenic product 5-nitro-2-thiobenzoic acid (TNB) which can be quantitated by absorbance at 410 nm. The amount of TNB produced reflects the hydrolytic activity of the enzyme.
(§3) The recombinant human sPLA2 groups IIA, V, and X enzymes were expressed in E. coli and purified to >90% purity by standard biochemical methods.
(§4) Procedure of Enzyme Inhibition for sPLA2-X • 1. […] Dilute the test compounds in 100% DMSO by half-log steps in a 96-well dilution plate using columns 1-11 (one compound per row). Column 12 contains DMSO alone with no compound. • 3. Prepare a 3.5 mM thio-PC substrate solution by drying down 7.2 mg of stock thio-PC in ethanol under a gentle stream of N2 gas. When dry, add 4 mL assay buffer (25 mM Tris, pH7.4; 100 mM KCl; 10 mM CaCl2; 0.1% Triton X-100) and warm in a 37° C. water bath for 20 minutes with intermittent vortexing. • 4. Prepare an “enzyme containing” reaction mix with the following components: 20.4 mL assay buffer; 2 mL DTNB (20 mM in 800 mM Tris, pH8.0); and 11.8 mg recombinant human sPLA2-X enzyme (>95% pure) diluted to a total of 0.8 mL assay buffer. • 5. Prepare a “no enzyme” reaction mix with the following components: 477 μL assay buffer and 45 μL DTNB. • 6. Dispense 58 μL “no enzyme” reaction mix into each of 8 wells (columns 23 and 24, rows M-P). • 7. Dispense 58 μL “enzyme containing” reaction mix into all remaining wells on the plate. • 8. From the 96-well compound dilution plate, add 2 μL from each well for each compound to each of 4 wells with “enzyme containing” reaction mix. Columns 23 and 24 on the assay plate will contain only DMSO (vehicle control). […] After compound addition, mix the contents of each well to ensure that the DMSO is evenly distributed in the well. • 9. Cover the plate and incubate in the dark at room temperature for 15 minutes. • 10. Add 10 μL of thio-PC substrate to all wells. The final concentration of thio-PC in the reactions is 0.5 mM. • 11. Cover the plate and incubate in the dark at room temperature for 30 minutes. • 12. Measure the absorbance of all wells at 410 nm. • 13. Determine the mean absorbance of the “no enzyme” wells. Subtract this value from the absorbance values determined for all other wells (these are now background corrected data). • 14. […] Procedure of Enzyme Inhibition for sPLA2-V • 1. […] Dilute the test compounds in 100% DMSO by half-log steps in a 96-well dilution plate using columns 1-11. Column 12 contains DMSO alone with no compound. • 3. Prepare a 3.5 mM thio-PC substrate solution by drying down 7.2 mg of stock thio-PC in ethanol under a gentle stream of N2 gas. When dry, add 4 mL assay buffer (25 mM Tris, pH7.4; 100 mM KCl; 10 mM CaCl2; 0.1% Triton X-100) and warm in a 37° C. water bath for 20 minutes with intermittent vortexing. • 4. Prepare an “enzyme containing” reaction mix with the following components: 20.4 mL assay buffer; 2 mL DTNB (20 mM in 800 mM Tris, pH8.0); and 12 mg recombinant human sPLA2-V enzyme (>95% pure) diluted to a total of 0.8 mL assay buffer. • 5. Prepare a “no enzyme” reaction mix with the following components: 477 μL assay buffer and […]. • 6. Dispense 58 μL “no enzyme” reaction mix into each of 8 wells (columns 23 and 24, rows M-P). • 7. Dispense 58 μL “enzyme containing” reaction mix into all remaining wells on the plate. • 8. From the 96-well compound dilution plate, add 2 μL from each well for each compound to each of 4 wells with “enzyme containing” reaction mix. Columns 23 and 24 on the assay plate will contain only DMSO (vehicle control).

Test [2] has as its target T2, recombinant human sPLA2-V enzyme (Homo sapiens, UniProt P39877).
T2 construct: made in house; host or cells: E. coli
T2 sequence (P39877 21-138): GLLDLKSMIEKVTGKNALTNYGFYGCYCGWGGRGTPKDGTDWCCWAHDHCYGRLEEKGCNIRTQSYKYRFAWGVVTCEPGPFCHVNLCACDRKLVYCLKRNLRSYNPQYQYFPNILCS
The experiment in a line: sPLA2-V enzyme inhibition assay (thio-PC substrate, DTNB detection, absorbance 410 nm).
Source text: as §1, §2, §3, §4

The next test concerns the target T3, sPLA2-X protein (Homo sapiens, UniProt O15496).
T3 sequence (O15496 43-165): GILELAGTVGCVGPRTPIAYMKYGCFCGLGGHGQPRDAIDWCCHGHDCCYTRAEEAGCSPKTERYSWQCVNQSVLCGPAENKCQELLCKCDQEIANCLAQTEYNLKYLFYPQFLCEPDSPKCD
The experiment in a line: sPLA2-X enzyme inhibition assay (thio-PC substrate, DTNB detection, absorbance 410 nm). The arrangement: made in house; host or cells: E. coli. Conditions: class symbols.
Source text: as §1, §2, §3, §4

Setting [3] is: read-out: sPLA2 Type IIa Inhibition (IC50; nM).
The mark [4] stands for this setting: class symbols, read-out: sPLA2 Type V Inhibition (IC50; nM).
The mark [5] stands for this setting: read-out: sPLA2 Type X Inhibition (IC50; nM).

pIC50: −log10 of the molar value. Read-outs that look alike come from different tables or passages of the source. A value given as a limit tells only on which side of the number the result lay.

In general, IC50 refers to the concentration that gives 50% inhibition. Regarding `NC(=O)c1cc2ccc(OC(F)(F)F)cc2n1-c1cccc(C2CC2C(=O)O)c1` (single isomer, unassigned) [Compound 15b, trans-(−)-2-(3-(2-carbamoyl-6-(trifluoromethoxy)-1H-indol-1-yl)phenyl)cyclopropane-1-carboxylic acid], the IC50 in test [1] (setting [3]) was over 1000 nM; in test [2] (setting [4]), over 5000 nM; on sPLA2-X protein (setting [5]) it was 20 to 50 nM.
On to `NC(=O)c1sc2ccc(OC(F)(F)F)cc2c1-c1cccc(C2(CC(=O)O)CC2)c1` [Compound 36, 2-(1-(3-(2-carbamoyl-5-(trifluoromethoxy)benzo[b]thiophen-3-yl)phenyl)cyclopropyl)acetic acid], for which the figures for the IC50 (in test [1] (setting [3]); in test [2] (setting [4]); on sPLA2-X protein (setting [5])) were over 1000 nM, 500 to 1500 nM and under 20 nM, respectively.
The matching figures for `NC(=O)c1cc2ccc(OC(F)(F)F)cc2n1-c1cncc(CCC(=O)O)c1` [Compound 53]: over 1000 nM, over 5000 nM and 50 to 200 nM.
As to `NC(=O)c1[se]c2ccc(OC(F)(F)F)cc2c1-c1cccc(C2CC2C(=O)O)n1` (stereo not drawn) [Compound 57, trans-2-(6-(2-carbamoyl-5-(trifluoromethoxy)benzo[b]selenophen-3-yl)pyridin-2-yl)cyclopropane-1-carboxylic acid], the IC50 in test [1] (sPLA2 Type IIa Inhibition (IC50; nM)) was over 1000 nM; in test [2] (sPLA2 Type V Inhibition (IC50; nM), class symbols), over 5000 nM; on sPLA2-X protein (sPLA2 Type X Inhibition (IC50; nM)), 50 to 200 nM.
For `N[C@H](CC(=O)O)c1cccc(-n2c(C(=O)O)cc3ccc(OC(F)(F)F)cc32)c1` [Compound 43, (R)-1-(3-(1-amino-2-carboxyethyl)phenyl)-6-(trifluoromethoxy)-1H-indole-2-carboxylic acid], the results for the IC50 (in test [1] (setting [3]); in test [2] (setting [4]); at sPLA2-X protein (setting [5])) were over 1000 nM, over 5000 nM and over 200 nM, respectively.
In the same order, the values of `C/C(=C\C(=O)O)c1cccc(-n2c(C(N)=O)cc3ccc(OC(F)(F)F)cc32)n1` [Compound 6, (E)-3-(6-(2-carbamoyl-6-(trifluoromethoxy)-1H-indol-1-yl)pyridin-2-yl)but-2-enoic acid] are over 1000 nM, over 5000 nM and over 200 nM.
As for `NC(=O)c1cc2ccc(OC(F)(F)F)cc2n1-c1cccc(N2CC(F)(F)C2)n1` [Compound 68, 1-(6-(3,3-difluoroazetidin-1-yl)pyridin-2-yl)-6-(trifluoromethoxy)-1H-indole-2-carboxamide], the IC50 in test [1] (setting [3]) is over 1000 nM; in test [2] (setting [4]), over 5000 nM; on sPLA2-X protein (setting [5]), 50 to 200 nM.
Turning to `CC(C)(CC(=O)O)c1cccc(-n2c(C(N)=O)cc3ccc(OC(F)(F)F)cc32)c1` [Compound 22, 3-(3-(2-carbamoyl-6-(trifluoromethoxy)-1H-indol-1-yl)phenyl)-3-methylbutanoic acid], the IC50 in test [1] (setting [3]) was over 1000 nM; in test [2] (setting [4]) it was 1500 to 5000 nM; at sPLA2-X protein (setting [5]) it was under 20 nM.
As to `NC(=O)c1cc2ccc(OC(F)(F)F)cc2n1-c1cccc(C2CC2C(=O)O)n1` (single isomer, unassigned) [Compound 28d, cis-(−)-2-(6-(2-carbamoyl-6-(trifluoromethoxy)-1H-indol-1-yl)pyridin-2-yl)cyclopropane-1-carboxylic acid], the results for the IC50 (in test [1] (setting [3]); in test [2] (setting [4]); at sPLA2-X protein (setting [5])) were over 1000 nM, 1500 to 5000 nM and 50 to 200 nM, respectively.
The matching figures for `CC(C)(Cc1cccc(-n2c(C(N)=O)cc3ccc(OC(F)(F)F)cc32)n1)C(=O)O` [Compound 8, 3-(6-(2-carbamoyl-6-(trifluoromethoxy)-1H-indole-1-yl)pyridin-2-yl)-2,2-dimethylpropanoic acid]: over 1000 nM, over 5000 nM and 50 to 200 nM.
Regarding `NC(=O)c1oc2ccccc2c1-c1cccc(CCC(=O)O)c1` [Compound 25, 3-(3-(2-carbamoylbenzofuran-3-yl)phenyl)propanoic acid], the IC50 in test [1] (setting [3]) was over 1000 nM; in test [2] (setting [4]), over 5000 nM; at sPLA2-X protein (setting [5]), over 200 nM.
Consider `NC(=O)c1cc2ccc(OC(F)(F)F)cc2n1-c1cccc(C2(NCC(=O)O)CCC2)n1` [Compound 50, (1-(6-(2-carbamoyl-6-(trifluoromethoxy)-1H-indol-1-yl)pyridin-2-yl)cyclobutyl)glycine], for which the values for the IC50 (in test [1] (setting [3]); in test [2] (setting [4]); at sPLA2-X protein (setting [5])) were over 1000 nM, over 5000 nM and 20 to 50 nM, respectively.
As for `NC(=O)c1cc2ccc(OC(F)(F)F)cc2n1-c1cccc([C@@H]2C[C@H]2C(=O)O)n1` (single isomer, unassigned) [Compound 28b, trans-(+)-2-(6-(2-carbamoyl-6-(trifluoromethoxy)-1H-indol-1-yl)pyridin-2-yl)cyclopropane-1-carboxylic acid], the IC50 in test [1] (setting [3]) was over 1000 nM; in test [2] (setting [4]), over 5000 nM; at sPLA2-X protein (setting [5]), over 200 nM.
With `NC(=O)c1cc2ccc(OC(F)(F)F)cc2n1-c1cccc(C2(CC(=O)O)CC2)c1` [Compound 31, 2-(1-(3-(2-carbamoyl-6-(trifluoromethoxy)-1H-indol-1-yl)phenyl)cyclopropyl)acetic acid], the half-maximal inhibitory concentration (IC50) in test [1] (setting [3]) is over 1000 nM; in test [2] (setting [4]) it was under 500 nM; at sPLA2-X protein (setting [5]), under 20 nM.
As for `NC(=O)c1cc2ccc(OC(F)(F)F)cc2n1-c1cccc(N2CC[C@H]2C(=O)O)n1` [Compound 69, (S)-1-(6-(2-carbamoyl-6-(trifluoromethoxy)-1H-indol-1-yl)pyridin-2-yl)azetidine-2-carboxylic acid], the figures for the IC50 (in test [1] (setting [3]); in test [2] (setting [4]); on sPLA2-X protein (setting [5])) were over 1000 nM, over 5000 nM and over 200 nM, respectively.
`NC(=O)c1cc2ccc(OC(F)(F)F)cc2n1-c1ccc2c(c1)C(CC(=O)O)CO2` (single isomer, unassigned; (-)) [Compound 1b, (−)-2-(5-(2-carbamoyl-6-(trifluoromethoxy)-1H-indol-1-yl)-2,3-dihydrobenzofuran-3-yl)acetic acid]: the IC50 was over 1000 nM in test [1] (setting [3]) and over 200 nM on sPLA2-X protein (setting [5]).
For orientation: pIC50 means −log10 of the IC50, conventionally taken in molar units. `CCc1c(C(=O)C(N)=O)c2c(OCC(=O)O)cccc2n1Cc1ccccc1` [LY315920, Varespladib, reference compound]: the pIC50 in test [2] (IC50 value for positive control, sPLA2-V, value the positive control should give per the procedure) was about 7.00. Further, in test [2] (numeric value, control, read-out: sPLA2 Type V Inhibition (IC50; nM)), the IC50 is 124 nM.
